This note sets out measurements from patent US20090263492A1, “Diagnostic Methods and Genetic Markers for Alzheimer Disease” (priority 2006, published 2009).

Assay type in all cases: cell-based, human
One assay concerns Mgat3 transcription. Put plainly: qPCR of Mgat3 transcription in PBMC's from AD patients cultured with Aβ and test agent. Here is the method:
(§1) RNA Isolation and qPCR. RNA was isolated as above from PBMC's (10 million) of each subject, which were cultured overnight with or without Aβ (2 μg/ml); and cDNA was synthesized using the iSCRIPT cDNA Synthesis Kit. The expression levels of the genes of interest were tested by qPCR on a real-time PCR detector and normalized to the levels of the housekeeping gene 36B4 with the following primers: […]
(§2) SYBR Green reactions were carried out with the IQ SYBR Green mix. Reactions were run on a Continuous Fluorescence detector and analyzed. The relative quantities of the gene tested per sample were calculated against 36B4 using the ΔΔC(T) formula as previously described. The results are expressed as log [MGAT (or TLR) RNA (with Aβ)/MGAT (or TLR) RNA (without Aβ)] for each specimen. For evaluation of curcumins or curcumin analogs the above assay was used. Curcumins (0.1 uM) were added to PBMC's from AD patients cultured overnight with ±Aβ as above. After 2 hours of incubation with the curcumin or analog, RNA was isolated and cDNA was synthesized as above. The expression levels of Mgat3 or TLR transcription was quantified and normalized to the levels of housekeeping genes and compared to cells treated with curcumin or analogs with or without Aβ vs. untreated cells. The amount of Mgat3 (or TLR) RNA with Aβ and test agent/Mgat3 (or TLR) RNA withal alone)] for each cell preparation in the presence of test agent was determined. The ratio was used to determine the potency of the agent tested. Potent compounds had elevated ratios (>1.5) and were used to rank the relative activity of each test agent (Table 2).
Curcumins. […] Crude natural product derived materials (i.e., curcuminoids) enhance phagocytosis of Aβ by macrophages from AD patients in approximately 50% of the cases examined. […] The material was purified to near homogeneity and identified by LCMS as bisdesmethoxycurcumin on the basis of its molecular ion and fragmentation pattern. To verify the biological activity of this minor constituent, bisdesmethoxycurcumin was chemically synthesized and tested in the phagocytosis and transcription assays described above (see Example 4). Compared with curcumin, both the bisdesmethoxycurcumin material isolated by chromatography and the chemically synthesized bisdesmethoxycurcumin material optimally stimulated phagocytosis at 0.1 μM. To determine whether functional improvement would be accompanied by biochemical changes, we tested transcriptional up-regulation of MGA T3 and TLR's in PBMC's from AD patients and controls in the presence of Aβ with bisdesmethoxycurcumin (0.1 μM) in comparison to Aβ alone. […] Thus, curcumins (0.1 uM) were added to PBMC's from AD patients cultured overnight with Aβ as above. After 2 hours of incubation, RNA was isolated and cDNA was synthesized. The expression levels of Mgat3 or TLR transcription was quantified and normalized to the levels of housekeeping genes and compared to cells treated with curcumin or analogs without Aβ. The amount of Mgat3 (or TLR) RNA with test agent and Aβ)/Mgat3 (or TLR) RNA (with Aβ alone)] for each cell preparation in the presence of test agent was determined. The ratio was used to determine the potency of the agent tested. Potent compounds had elevated ratios (>1.5) and were used to rank the relative activity (Table 2).
Mgat3 and TLR transcription in cells from AD and control patients. We tested by qPCR Mgat3 and/0or TLR transcription in cells from AD patients and compared the results to those obtained from age-matched controls (Table 2). As discussed above, activation or up-regulation of macrophage Mgat3 or TLR's results in many functional outcomes, including the enhancement of […] and removal of Aβ, increased apoptosis, secretion of inflammatory cytokines, and other anti-AD antimicrobial activities. […] Thus, the ratio of Mgat3 or TLR transcription upon Aβ stimulation of AD versus control PBMCs provides an indicator and sensitive method to test the in vitro efficacy of drug candidates. […]

Assay [1] concerns Toll-like receptor (TLR) RNA's (TLR1-10). Put plainly: qPCR of TLR transcription in PBMC's from AD patients cultured with Aβ and test agent. Conditions: for up-regulation of TLR1-10 RNA: PBMCs from one AD patient (patient D, FIG. 1), Aβ plus agent overnight. Here is the method:
10 million PBMC's each of four AD patients (A, B, C, D) were treated overnight with no addition, Aβ (A, B, C, D; black bars) or with Aβ and bisdemethoxycurcumin (D, striped bar). Control subjects's (M, N, O) PBMC's were treated with no addition or Aβ (open bars). RNA was extracted and tested by qPCR, and the TLR ratio was determined as described in the Methods. The significance of differences between patients and controls (by Mann-Whitney test) are: TLR1 0.05; TLR2 0.05; TLR3 0.05; TLR4 0.08; TLR5 0.05; TLR6 0.077; TLR7 0.08; TLR8 0.05; TLR9 0.08; TLR10 0.05. The graphs show changes in receptors on 2-fold (log 2) scale.
as §1
as §2, with “Curcumins (0.1 uM) were added to PBMC's from AD patients cultured overnight with ±Aβ as above. After 2 hours of incubation with the curcumin or analog, RNA was isolated and cDNA was synthesized as above.” left out, “The ratio was used to determine the potency of the agent tested. Potent compounds had elevated ratios (>1.5) and were used to rank the relative activity of each test agent (Table 2).” left out
Curcumins. […] The expression levels of Mgat3 or TLR transcription was quantified and normalized to the levels of housekeeping genes and compared to cells treated with curcumin or analogs without Aβ. […]

For assay [2], the system named is macrophages of AD patients. Description: Phagocytosis of FITC-amyloid-beta (1-42) by macrophages of AD patients. An excerpt:
Peripheral blood mononuclear cells (PBMC's) and macrophages. AD patients were recruited at the time of enrollment in a double-blind study of curcumin Complex 3 in progress at UCLA. The diagnostic criteria for AD satisfied the National Institute of Neurological and Communicative Disorders and the AD and Related Disorders Association criteria for probable Alzheimer's disease. Normal age-matched control subjects were recruited. PBMC's were isolated by the Ficoll Hypaque gradient technique from venous blood. To prepare macrophage slide cultures, 50,000 PBMC's were cultured in each well of an 8-chamber polystyrene vessel glass slide in Iscove's medium with 10% autologous serum until differentiated into adherent macrophages (7-14 days).
Phagocytosis assay and confocal microscopy. Macrophages were exposed to FITC-amyloid-beta (1-42) (2 μg/ml) overnight, fixed with 4% paraformaldehyde, permeabilized with 0.1% Triton X-100, blocked with 1% BSA in PBS and stained with Rab 5 or EEA1 antibodies by indirect immunofluorescence; lysosomes were stained intravitally by the Lyso-Tracker probe; macrophages were stained using anti-CD68; neurons were stained using anti-NeuN. The preparations were examined using fluorescence and confocal microscopy.
Ability of monocytes to clear Aβ in the brain. Co-culture of freshly isolated monocytes with sections of AD frontal lobe to test the ability of monocytes to clear Aβ in the brain was done. One third of control monocytes became saturated with Aβ in 2 days and 100% in 4 days. […] Apoptosis of macrophages treated with Aβ was done with the SR-VAD-FMK polycaspase assay. Differentiated macrophages were treated with curcuminoids or analogs in the medium overnight and were then exposed to FITC-Aβ (1-42) to 2.5 μg/ml, incubated for 24 or 48 h and examined by fluorescence or confocal microscopy.
Curcuminoids reverse defective phagocytosis of amyloid-beta by macrophages of individual AD patients. […] Macrophages were visualized using anti-CD68 or fluorescent phalloidin with a fluorescence microscope.

Assay [3] deals with TLR2, TLR3 and TLR4 on monocytes. Description: Flow cytometry of TLR expression on monocytes of PBMCs from an AD patient.
[4] abbreviates: 0.1 μM, PBMC's from AD patients.

Entries after “also recorded” stand apart in the source; their conditions may differ.

As for `O=C(C=Cc1ccc(O)cc1)C=C(O)C=Cc1ccc(O)cc1` [Compound 5a, 5-Hydroxy-1,7-bis-(4-hydroxy-phenyl)-hepta-1,4,6-trien-3-one], in the assay with Mgat3 transcription (setting [4]), the “transcription of MGAT3 with Aβ and agent in comparison to Aβ alone” value is listed as “up-regulated in all four patients examined”. Further, the fold induction at 0.1 µM with Mgat3 transcription (Homo sapiens, curcumins 0.1 uM, PBMC's from AD patients cultured overnight with Aβ, 2 hours incubation, qPCR, read-out: Relative Activity: relative ratio of Mgat3 transcription in AD/Mgat3 transcription in control cells) was 1.5 to 2. The “relative Mgat3 ratios” value in the assay with Mgat3 transcription (repeat assays) is listed as 3-5 fold. The “transcription of TLRs with Aβ and agent in comparison to Aβ alone” value in assay [1] (setting [4]) was “up-regulated in all four patients examined”. In addition, the “up-regulation of TLR1-10 RNA” value in assay [1] (listed as Bisdemethoxycurcumin) was “all 10 TLRs were up-regulated”; in assay [1] (listed as bisdemethoxycurcumin) it was “up-regulation”. In assay [2] (in vitro treatment during Aβ phagocytosis, fluorescence/confocal microscopy, listed as bisdemethoxycurcumin), the “effect on Aβ phagocytosis/uptake by AD macrophages” value is given as “enhanced the phagocytosis of Aβ by macrophages of AD patients; also recorded: considerable activity”. Besides, the “concentration that optimally stimulated phagocytosis” value in assay [2] (isolated and chemically synthesized material, compared with curcumin) amounted to 0.1 µM. Moreover, the “expression of TLR2, TLR3 and TLR4 on monocytes” value in assay [3] is listed as “increased expression”.
